The assay concerns the target T1, abc isoform of human TMEM16A channel expressed in CHO cells (Homo sapiens, UniProt Q5XXA6, DEL476-501).
T1 construct: expressed in transfected cells; host or cells: CHO cells, doxycycline-inducible expression under Blasticidin/Zeocin selection
T1 sequence (Q5XXA6 with tags, fused parts or gaps isoform Q5XXA6-5 DEL539-564): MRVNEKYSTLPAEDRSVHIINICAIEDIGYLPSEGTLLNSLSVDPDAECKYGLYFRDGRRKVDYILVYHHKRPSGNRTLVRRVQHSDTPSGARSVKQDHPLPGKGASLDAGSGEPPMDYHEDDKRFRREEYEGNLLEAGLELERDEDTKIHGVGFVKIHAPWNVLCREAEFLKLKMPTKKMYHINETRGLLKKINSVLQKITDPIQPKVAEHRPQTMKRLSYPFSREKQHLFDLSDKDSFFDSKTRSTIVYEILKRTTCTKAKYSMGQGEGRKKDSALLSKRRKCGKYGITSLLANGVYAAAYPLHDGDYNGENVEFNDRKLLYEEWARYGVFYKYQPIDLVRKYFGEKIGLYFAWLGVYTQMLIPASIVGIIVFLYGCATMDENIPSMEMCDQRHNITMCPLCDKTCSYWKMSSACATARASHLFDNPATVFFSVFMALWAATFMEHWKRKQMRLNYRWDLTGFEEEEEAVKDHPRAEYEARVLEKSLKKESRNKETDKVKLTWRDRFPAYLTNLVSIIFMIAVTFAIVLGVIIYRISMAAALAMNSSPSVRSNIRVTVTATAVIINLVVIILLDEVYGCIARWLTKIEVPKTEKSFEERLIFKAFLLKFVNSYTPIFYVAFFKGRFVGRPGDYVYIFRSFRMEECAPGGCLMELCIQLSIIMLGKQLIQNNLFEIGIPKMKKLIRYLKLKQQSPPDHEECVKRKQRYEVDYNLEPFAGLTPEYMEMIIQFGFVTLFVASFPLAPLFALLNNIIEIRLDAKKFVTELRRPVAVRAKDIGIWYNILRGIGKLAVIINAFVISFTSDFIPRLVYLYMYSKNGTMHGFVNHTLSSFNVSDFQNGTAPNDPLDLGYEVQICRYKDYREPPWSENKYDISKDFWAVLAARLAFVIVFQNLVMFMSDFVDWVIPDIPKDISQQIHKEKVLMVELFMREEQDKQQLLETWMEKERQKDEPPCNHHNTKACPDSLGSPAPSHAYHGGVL
Kind of assay: Automated patch clamping (QPatch) assay to measure TMEM16A activity in whole-cell. The format is cell-based. The conditions noted are these: for EC50: CHO cells expressing human TMEM16A (abc), whole-cell automated patch clamp, Hill fit, read-out: TMEM16A QPATCH assay EC50 V3 EC50; for Emax: CHO, maximum current at highest dose relative to reference potentiator at maximal concentration (upper limit) and vehicle (lower limit), read-out: TMEM16A QPATCH assay EC50 V3 Assay Window (% TMEM16A max activation). The procedure: Automated Patch Clamping Assay to Measure TMEM16A Activity in Whole-Cell
Chinese hamster ovary cells (CHO) cells expressing abc isoform of human TMEM16A channel (Ref) were grown in vented cell-culture flasks (Corning) containing cell culture medium (1×F-12 Ham, 10% FBS, 1% Penicillin-streptomycin, 5 μg/mL Blasticidin S HCl, 400 μg/mL Zeocin), maintained at 37° C. in an incubator with 5% C02, 95% 02 and 100% humidity. The cells were passaged every 2-3 days at 80-90% confluence by aspirating the cell culture medium, washing twice with 10 mL D-PBS then incubating with 4 mL Trypsin-EDTA for no longer than 5 minutes. Trypsin was neutralized with the addition of 32 mL growth medium to the cell suspension, the cells were counted using a viable-cell counter (Vi-CELL; Beckmann-Coulter) and new flasks were seeded at a cell density of 0.01, 0.02, or 0.05×10^6 cells per cm2 for 3, 2, or 1 day(s) growth, respectively. Cell suspension was diluted in the new 175 cm2 flask with 50 mL of growth medium. Doxycycline was used to induce the expression of TMEM16A channel protein and was added directly to the culture flask 18-24 hours in advance of assay at a final concentration of 1 μg/mL. Induced cells were washed with D-PBS and detached from their culture flasks by adding 10 mL of Detachin and incubating for 10 minutes. Once detached, 5 mL of QPatch assay medium (1×CHO-S-SFM II (Sigma), 25 mM HEPES) was added and the resultant cell suspension counted using the Vi-CELL viable cell counter. The optimal cell density for this QPatch assay is 2-5×1 06 cells/mL; re-adjusted as necessary with QPatch assay medium.
The ion channel activity of TMEM16A (abc) expressed in CHO cells was assed using an automated patch clamp system (Qpatch, Sophion). These systems use planar patch-clamp technology to enable high-resistance, continuous whole-cell recordings from multiple cells in parallel, whilst maintaining each individual cell as an isolated experiment. First, each well was primed with intracellular and extracellular solutions described below. Cells were spun down, washed and then resuspended using extracellular solution. Intracellular solution: 130 mM N-methyl-D-glucamine, 10 mM EGTA, 20 mM CaCl2, 1 mM MgCl2, 10 mM HEPES 10, 10 mM BAPTA, 99 mM Sucrose, 2 mM Mg-ATP, pH 7.3, 320 mOsm Extracellular solution: 130 mM N-methyl-D-glucamine, 10 mM EGTA, 20 mM CaCl2, 1 mM MgCl2, 10 mM HEPES 10, 10 mM BAPTA, 99 mM Sucrose, 2 mM Mg-ATP, pH 7.3, 320 mOsm. Resuspended cells were then added to each well and suction was applied from the intracellular side in order to position a cell on the chip aperture, form a high resistance (GO) seal and achieve a whole-cell recording configuration. Following successful whole cell access, cell membranes were maintained at a voltage of −70 mV until the voltage protocol is applied. From this voltage, membranes were depolarized to +70 mV for 1500 ms, and then hyperpolarized to […] before being depolarized again from −90 to +70 mV in a continuous ramp waveform. At the end of the ramp, the membrane voltage is stepped back to −70 mV until the next waveform was applied. Compounds were dissolved at 10 mM in 100% DMSO and then diluted into extracellular solution (0.3% DMSO final) to the desired final concentration. The assay lower and upper limit were defined as follow, average amplitude (nA) of the last 3 sweeps in the vehicle addition of each cell was considered the basal current (lower limit); the average maximum current response in 3 cells for a reference potentiator at maximal concentration (upper limit). Current values for each compound concentration were then plotted against […]. EC50 curves are fitted to concentration-response data using curve-fitting functions (Hill fit) within the QPatch software. Curve fitting is constrained between the lowest concentration (vehicle-only addition) and the highest current value measured within the concentration range. […]

For `CCC(CC)NC(=O)c1cc(-c2cccc(-c3ncc(C(=O)Nc4cc(C)cc(C)c4)o3)c2)[nH]n1` [Example 1.3], the 50% effective concentration (EC50) came out at 560 nM and the Emax stood at 82%.

For the molecule `COC(=O)[C@H](CC1CCCCC1)NC(=O)c1cnc(-c2cccc(-c3cc(C(=O)NC(C4CC4)C4CC4)n[nH]3)c2)o1` [Example 1.4, (S)-Methyl 3-Cyclohexyl-2-(2-(3-(3-((Dicyclopropylmethyl)Carbamoyl)-1H-Pyrazol-5-Yl)Phenyl)Oxazole-5-Carboxamido)Propanoate], the EC50 was 910 nM and the Emax was 103%.

Regarding `COC(=O)[C@@H](NC(=O)c1cnc(-c2cccc(-c3cc(C(=O)N[C@H](C)C4CC4)n[nH]3)c2)o1)C(C)C` [Example 1.5, (S)-Methyl 2-(2-(3-(3-(((R)-1-Cyclopropylethyl)Carbamoyl)-1H-Pyrazol-5-Yl)Phenyl)Oxazole-5-Carboxamido)-3-Methylbutanoate], the EC50 came out at 60 nM and the Emax was 98%.

Regarding `CCC(CC)NC(=O)c1cc(-c2cccc(-c3ncc(C(=O)N[C@@H](C)C4CC4)o3)c2)[nH]n1` [Example 1.6, (S)-N-(1-Cyclopropylethyl)-2-(3-(3-(Pentan-3-Ylcarbamoyl)-1H-Pyrazol-5-Yl)Phenyl)Oxazole-5-Carboxamide], the EC50 was 130 nM and the Emax came to 61%.

With `COC(=O)[C@@H](NC(=O)c1cnc(-c2cccc(-c3cc(C(=O)N[C@@H](C)C4CC4)n[nH]3)c2)o1)C(C)C` [Example 1.7, (S)-Methyl 2-(2-(3-(3-(((S)-1-Cyclopropylethyl)Carbamoyl)-1H-Pyrazol-5-yl)Phenyl)Oxazole-5-Carboxamido)-3-Methylbutanoate], the EC50 came to 90 nM and the Emax is 69%.

In the case of `C[C@H](NC(=O)c1cc(-c2cccc(-c3ncc(C(=O)N[C@H](C)C4CC4)o3)c2)[nH]n1)C1CC1` [Example 1.8, N-((R)-1-Cyclopropylethyl)-2-(3-(3-(((S)-1-Cyclopropylethyl)Carbamoyl)-1H-Pyrazol-5-Yl)Phenyl)Oxazole-5-Carboxamide], the EC50 worked out at 170 nM and the Emax was found to be 54%.

For the molecule `CCC(CC)NC(=O)c1cc(-c2cccc(-c3ncc(C(=O)N[C@H](C(=O)OC(C)(C)C)C(C)C)o3)c2)[nH]n1` [Example 1.9, (S)-Tert-Butyl 3-Methyl-2-(2-(3-(3-(Pentan-3-Ylcarbamoyl)-1H-Pyrazol-5-yl)Phenyl)Oxazole-5-Carboxamido)Butanoate], the EC50 turned out to be 30 nM and the Emax was 146%.

As to `CCC(CC)NC(=O)c1cc(-c2cccc(-c3ncc(C(=O)NC(CC)C(C)C)o3)c2)[nH]n1` (centres unmarked) [Example 1.11, N-(2-Methylpentan-3-Yl)-2-(3-(3-(Pentan-3-Ylcarbamoyl)-1H-Pyrazol-5-yl)Phenyl)Oxazole-5-Carboxamide], the EC50 turned out to be 270 nM and the Emax stood at 165%.

Turning to `CCOC(=O)[C@@H](NC(=O)c1cnc(-c2cccc(-c3cc(C(=O)NC(C4CC4)C4CC4)[nH]n3)c2)o1)C(C)C` [Example 1.12, (S)-Ethyl 2-(2-(3-(5-((Dicyclopropylmethyl)Carbamoyl)-1H-Pyrazol-3-yl)Phenyl)Oxazole-5-Carboxamido)-3-Methylbutanoate], the EC50 is 20 nM and the Emax worked out at 87%.

As for `CCC(CC)NC(=O)c1cc(-c2cccc(-c3ncc(C(=O)NC(C)(C)C)o3)c2)[nH]n1` [Example 1.13, N-(Tert-Butyl)-2-(3-(3-(Pentan-3-Ylcarbamoyl)-1H-Pyrazol-5-yl)Phenyl)Oxazole-5-Carboxamide], the EC50 worked out at 400 nM and the Emax came out at 112%.

Consider `CCOC(=O)[C@H](CCSC)NC(=O)c1cnc(-c2cccc(-c3cc(C(=O)NC(CC)CC)n[nH]3)c2)o1` [Example 1.14, (S)-Ethyl 4-(Methylthio)-2-(2-(3-(3-(Pentan-3-Ylcarbamoyl)-1H-Pyrazol-5-yl)Phenyl)Oxazole-5-Carboxamido)Butanoate], for which the EC50 was 680 nM and the Emax came to 111%.

`CCC(CC)NC(=O)c1cc(-c2cccc(-c3ncc(C(=O)N[C@H](C(=O)OC)c4ccccc4)o3)c2)[nH]n1` [Example 1.15, (S)-Methyl 2-(2-(3-(3-(Pentan-3-Ylcarbamoyl)-1H-Pyrazol-5-yl)Phenyl)Oxazole-5-Carboxamido)-2-Phenylacetate]: the half-maximal effective concentration (EC50) was 410 nM and the Emax stood at 100%.

Regarding `CCC(CC)NC(=O)c1cc(-c2cccc(-c3ncc(C(=O)N[C@@H](CC(C)C)C(=O)NCC(=O)OC(C)(C)C)o3)c2)[nH]n1` [Example 1.16, (S)-Tert-Butyl 2-(4-Methyl-2-(2-(3-(3-(Pentan-3-Ylcarbamoyl)-1 H-Pyrazol-5-yl)Phenyl)Oxazole-5-Carboxamido)Pentanamido)Acetate], the EC50 was 830 nM and the Emax stood at 100%.

Regarding `CCC(CC)NC(=O)c1cc(-c2cccc(-c3ncc(C(=O)NCc4ccc(F)cc4)o3)c2)[nH]n1` [Example 1.17, N-(4-Fluorobenzyl)-2-(3-(3-(Pentan-3-Ylcarbamoyl)-1H-Pyrazol-5-yl)Phenyl)Oxazole-5-Carboxamide], the EC50 was 580 nM and the Emax is 94%.

For the molecule `CCC(CC)NC(=O)c1cc(-c2cccc(-c3ncc(C(=O)NCC4CCCCO4)o3)c2)[nH]n1` (centres unmarked) [Example 1.18, 2-(3-(3-(Pentan-3-Ylcarbamoyl)-1H-Pyrazol-5-Yl)Phenyl)-N-((Tetrahydro-2H-Pyran-2-Yl)Methyl)Oxazole-5-Carboxamide], the EC50 was 180 nM and the Emax was determined as 39%.

Take `CCC(CC)NC(=O)c1cc(-c2cccc(-c3ncc(C(=O)NCc4ccccc4)o3)c2)[nH]n1` [Example 1.19, N-Benzyl-2-(3-(3-(Pentan-3-Ylcarbamoyl)-1H-Pyrazol-5-Yl)Phenyl)Oxazole-5-Carboxamide]: the 50% effective concentration (EC50) was determined as 130 nM and the Emax is 69%.

Source of the values: patent US20220306617A1, “SUBSTITUTED 1,3-PHENYL HETEROARYL DERIVATIVES AND THEIR USE IN THE TREATMENT OF DISEASE” (NOVARTIS AG, priority 2019, published 2022).
